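Each compound was tested at five concentrations against cells in 96-well plates for 48 hours. GI50 = concentration required for 50% inhibition of growth.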 Active and inactive are the calls of the source. Rule as the data show it: active = GI50 up to about 1.1 µM and inactive = higher.

Test systems include 786-0; CAKI-1; CCRF-CEM; HCT-116; HOP-92; M14; NCI-H226; NCI-H522; NCI/ADR-RES; OVCAR-5; PC-3; RXF 393; SF-539; SK-MEL-5; SN12C; SR; TK-10; UACC-257; UACC-62; HOP-62.
Holding throughout (assay): inhibition of tumour cell growth, NCI panel, 48 h

As for `O=C(Nc1cc2c(=O)oc3ccccc3c2oc1=O)c1cccnc1`, the GI50 is > 100 µM (inactive) with 786-0; > 100 µM (inactive) with CAKI-1; > 100 µM (inactive) in the assay on CCRF-CEM; > 100 µM (inactive) with HCT-116; > 100 µM (inactive) with HOP-92; 79.6 µM (inactive) in the assay with M14. For the same compound, the GI50 in the assay on NCI-H226, in the assay on NCI-H522, in the assay on NCI/ADR-RES, in the assay with OVCAR-5, in the assay with PC-3 and in the assay with RXF 393 was > 100 µM (inactive) throughout. Besides, the GI50 with SF-539 is > 100 µM (inactive); with SK-MEL-5 it was > 100 µM (inactive); in the assay with SN12C, > 100 µM (inactive); in the assay with SR it was 78.5 µM (inactive); in the assay on TK-10 it was > 100 µM (inactive); with UACC-257, > 100 µM (inactive). Also, the GI50 with UACC-62 is > 100 µM (inactive).

Turning to `Cc1cc(S(=O)(=O)N2CCNNC2=O)c(S)cc1Cl`, the GI50 in the assay with 786-0 was 19.9 µM (inactive); in the assay on CAKI-1, 33.5 µM (inactive); in the assay with CCRF-CEM it was 37 µM (inactive); in the assay on HOP-92, 48.4 µM (inactive); in the assay on M14 it was 41.6 µM (inactive); in the assay on NCI-H226 it was > 100 µM (inactive). In addition, the GI50 in the assay with NCI-H522 is 22.5 µM (inactive); with NCI/ADR-RES, > 100 µM (inactive); in the assay with OVCAR-5 it was > 100 µM (inactive); with PC-3, > 100 µM (inactive); in the assay on RXF 393 it was 13.7 µM (inactive); with SF-539 it was 37 µM (inactive). The GI50 with SK-MEL-5, in the assay on SN12C, with SR, with TK-10, with UACC-257 and in the assay with UACC-62 was > 100 µM (inactive) each time.

As for `COc1ccc(C2c3cc4c(c(OC)c3CC3OCC(=O)C32)OCO4)cc1OC` (stereo not drawn), the GI50 was 0.0348 µM (active) in the assay with 786-0; 0.0405 µM (active) in the assay on CAKI-1; 0.0371 µM (active) in the assay with CCRF-CEM; 0.0516 µM (active) in the assay with HCT-116; 25 µM (inactive) in the assay with HOP-92; 0.0482 µM (active) in the assay with M14. In addition, the GI50 in the assay with NCI-H226 is 0.0385 µM (active); with NCI-H522, < 0.01 µM (active); with NCI/ADR-RES, 0.0377 µM (active); with OVCAR-5, 0.153 µM (active); with PC-3 it was 0.0619 µM (active); in the assay on RXF 393, 0.0212 µM (active). Also, the GI50 is 0.0246 µM (active) with SF-539; 0.037 µM (active) in the assay with SK-MEL-5; < 0.01 µM (active) in the assay with SN12C; < 0.01 µM (active) in the assay with SR; 60.7 µM (inactive) in the assay on TK-10; 0.0531 µM (active) in the assay on UACC-62.

For the compound `Cc1n[nH]c(=O)c2c3c([nH]c12)-c1ccccc1C3`, the GI50 in the assay on 786-0, in the assay on CAKI-1, in the assay with CCRF-CEM, with HCT-116, in the assay with HOP-62 and in the assay on HOP-92 was > 100 µM (inactive) in each case. Moreover, the GI50 is > 100 µM (inactive) in the assay on M14; 51.1 µM (inactive) in the assay on NCI-H226; > 100 µM (inactive) in the assay with NCI-H522; > 100 µM (inactive) with NCI/ADR-RES; > 100 µM (inactive) in the assay with OVCAR-5; > 100 µM (inactive) with PC-3. The GI50 with RXF 393 is 77.3 µM (inactive); with SF-539, > 100 µM (inactive); in the assay with SK-MEL-5, > 100 µM (inactive); in the assay on SN12C it was > 100 µM (inactive); with SR, 82.8 µM (inactive); with TK-10, 63.4 µM (inactive). In addition, the GI50 with UACC-257 was 19.5 µM (inactive).

With `O=C1c2c(ccc3c2CCC3)CC12Cc1cc3c(cc1C2)CCC3`, the GI50 in the assay on 786-0, with CAKI-1, with CCRF-CEM, in the assay with HCT-116, in the assay with HOP-62 and in the assay on HOP-92 was > 100 µM (inactive) in each case. The GI50 in the assay on M14, in the assay on NCI-H226, in the assay on NCI-H522, with NCI/ADR-RES, in the assay with OVCAR-5 and in the assay on PC-3 was > 100 µM (inactive) in each case. Further, the GI50 with RXF 393, in the assay on SF-539, in the assay with SK-MEL-5, with SN12C, with SR and in the assay with TK-10 was > 100 µM (inactive) in each case. The GI50 in the assay on UACC-257 was > 100 µM (inactive).

In the case of `COc1ccc(OC)c(C2CCCc3c2cnc2nc(N)nc(N)c32)c1` (stereo not drawn), the GI50 in the assay on 786-0 is < 0.01 µM (active); with CAKI-1, 0.0982 µM (active); in the assay on HCT-116, < 0.01 µM (active); with HOP-92, 0.863 µM (active); with M14 it was < 0.01 µM (active); in the assay on NCI-H226, > 100 µM (inactive). Also, the GI50 in the assay on NCI-H522 was < 0.0392 µM (active); with NCI/ADR-RES, 1.04 µM (active); in the assay on PC-3 it was > 71.1 µM (inactive); in the assay on RXF 393, < 0.0129 µM (active); in the assay on SF-539 it was < 0.0119 µM (active); with SK-MEL-5, < 0.01 µM (active). Also, the GI50 was < 0.01 µM (active) in the assay on SN12C; < 0.01 µM (active) in the assay with SR; 0.0217 µM (active) in the assay with TK-10; < 0.01 µM (active) with UACC-257; < 0.01 µM (active) in the assay with UACC-62.

As to `COC(=O)[C@@H]1C[C@]2(CC=C(C)C)c3ccccc3N(S(=O)(=O)c3ccccc3)[C@@H]2N1C(=O)OC`, the GI50 in the assay on 786-0 was 25.1 µM (inactive); in the assay on CAKI-1, 27.2 µM (inactive); in the assay with CCRF-CEM, 27.9 µM (inactive); with HCT-116, 20 µM (inactive); in the assay with HOP-62, 26.8 µM (inactive); with HOP-92 it was 15.1 µM (inactive). Also, the GI50 with NCI-H226 is 19 µM (inactive); with NCI-H522, 10.3 µM (inactive); with NCI/ADR-RES it was 10.4 µM (inactive); in the assay on OVCAR-5, > 100 µM (inactive); with PC-3, 17 µM (inactive); in the assay on RXF 393, 8.22 µM (inactive). Moreover, the GI50 with SF-539 is 24.8 µM (inactive); in the assay with SK-MEL-5, 11.6 µM (inactive); in the assay on SN12C, 40.6 µM (inactive); with SR, 5.33 µM (inactive); in the assay on TK-10 it was 32 µM (inactive); with UACC-257, 10.7 µM (inactive). The GI50 in the assay with UACC-62 is 4.5 µM (inactive).

For the compound `CC(NC(=O)c1ccc(NP(=O)(OCc2ccc([N+](=O)[O-])o2)N(C)CCCCCl)cc1)c1ccc(OCC2CCCCC2)c(C(N)=O)c1` (stereo not drawn), the GI50 in the assay with 786-0 was 17.5 µM (inactive); in the assay on CAKI-1, 26.4 µM (inactive); in the assay with CCRF-CEM it was 0.904 µM (active); in the assay on HCT-116, 16.2 µM (inactive); in the assay on HOP-62 it was 16.9 µM (inactive); in the assay with HOP-92, 2.95 µM (inactive). In addition, the GI50 is 16.4 µM (inactive) in the assay on NCI-H226; 15.5 µM (inactive) with NCI-H522; 61.8 µM (inactive) with NCI/ADR-RES; 25.4 µM (inactive) in the assay on OVCAR-5; 19.5 µM (inactive) in the assay with PC-3; 10.9 µM (inactive) in the assay on RXF 393. Further, the GI50 with SF-539 was 16.5 µM (inactive); in the assay with SK-MEL-5, 4.56 µM (inactive); in the assay on SN12C it was 18.9 µM (inactive); with SR, 10.5 µM (inactive); in the assay with TK-10, 23.4 µM (inactive); in the assay with UACC-257, 13.4 µM (inactive). Further, in the assay with UACC-62, the GI50 was 12.6 µM (inactive).

The values above are taken from ChEMBL document CHEMBL1201862, “PubChem BioAssay data set” (2004).
